Results reported in patent US5883084A, “Treatment of respiratory diseases utilizing α-tocopheryl-phosphocholine” (Clarion Pharmaceuticals Inc., priority 1998, dated 1999).

Legend:
[1] = tested on: RAW 264.7 murine monocyte/macrophage cell line (PMA-stimulated respiratory burst); test: In vitro anti-inflammatory activity by inhibition of macrophage activation (luminol chemiluminescence, PMA-stimulated); type: cell-based, mouse; conditions: for inhibition at 1000 µM / inhibition at 3000 µM / inhibition at 10000 µM / inhibition at 30000 µM: Mus musculus, RAW264.7, RAW 264.7, PMA 100 ng, luminol; for inhibition at 1000 µM: 1 mM; for inhibition at 3000 µM: 3 mM; for inhibition at 10000 µM: 10 mM; for inhibition at 30000 µM: 30 mM
Description: Activation of alveolar macrophages is a critical component of pulmonary inflammation. In their activated state, alveolar macrophages secrete a variety of inflammatory mediators and reactive oxygen species. In the present in vitro model of inflammation, mouse macrophages are activated by phorbol-12-myristate-13-acetate (PMA). The intensity of macrophage activation in the presence or absence of the subject compounds is determined by measuring the respiratory burst (release of reactive oxygen species) of the macrophages.
The RAW 264.7 cell line (American Type Culture Collection, Rockville, Md., USA, Accession No. TIE 71) is a murine monocyte/macrophage line, the cells of which show many of the differentiative functions of a macrophage. Like macrophages, the cells are capable of phagocytosis and undergo an oxidative burst (increased oxygen consumption) and production of oxygen radicals (e.g., superoxide) in response to appropriate signals. Agents that inhibit the activation of these cells in vitro so as to inhibit the respiratory burst and corresponding production of oxygen radicals associated with activation interdict a critical step in the inflammatory process.
The respiratory burst and corresponding production of oxygen radicals that accompany macrophage activation can be measured in a variety of ways, including chemiluminescence based on the reaction of the oxygen radicals with luminol added to the culture medium (see M. A. Trush et al., 1978, "The Generation of Chemiluminescence by Phagocytic Cells.", Methods in Enzymology 57: 462-494). Chemiluminescence generated from luminol in the culture medium of macrophage cell lines is recognized in the art as a marker of macrophage activation. Materials:
Cell line: RAW 264.7 (ATCC TIB-71, attachment dependent);
Culture medium: Dulbecco's Modified Eagle's Medium (DMEM, Sigma Chemical Co. Cat. No. D-7777) with 10% Fetal Bovine Serum (FBS);
Standard protocol for culturing cell lines: in T-75 or T-150 flasks; 37° C.; 95% air, 5% CO2; 100% humidity;
Cell line is passaged when approximately 80% confluent; with trypsin (1 mg/mL) and ethylenediamine tetraacetic acid (EDTA) (1 mM in Ca-Mg free Hank's balanced salt solution); at 1:4 to 1:5 split;
All procedures are performed aseptically in a Class II biological safety cabinet using standard Biosafety Level 2 (BL-2 containment procedures. In order to prevent genetic drift in stock cell lines, fresh cultures are prepared at approximately monthly intervals with cells thawed from liquid nitrogen storage. Methodology:
After cell passage, count cells with a hemocytometer; Adjust cell concentration to approximately 1,000,000 cells per mL;
Suspend cells in DMEM lacking phenol red and without FBS;
Pipette 1 mL of cell suspension into a standard luminometer cuvette (12×75 mm), commercially obtainable from Analytical Luminescence Laboratories, San Diego, Calif., USA;
Add luminol to final concentration of 0.2 mM;
Add test compound dissolved in phosphate buffered saline (PBS), or in dimethyl sulfoxide (DMSO) for final concentration levels ranging from 1 to 30 mM;
Add 100 nanograms of phorbol myristate acetate (PMA); and
Wait 1 minute and read photo counts (i.e., luminescence) on a Monolight 2010 luminometer available from Analytical Luminescence Laboratories, San Diego.

Mouse Tracheal Mucus = test: Mucolytic activity in mouse tracheal mucus (phenol red secretion, aerosol); type: in vivo; conditions: mice, 25 mg/mL in saline, approximately 100 mg/kg, 5 mice, saline control zero percent
Source text: The invention provides a method of alleviating respiratory distress due to tenacious pulmonary mucous secretions in a patient suffering from such distress. In the preferred embodiment, the method is accomplished by the intermittent inhalation of an aerosol or dry powder formulation of α-tocopheryl-phosphocholine to deliver an effective mucolytic amount of α-tocopheryl-phosphocholine to the lung airways. […] The in vivo mucolytic assay is similar to that described by Chand et al. Agents and Actions, (1993) 38:165-170, incorporated herein by reference.
The procedure, which delivers the test compound to mice as an aerosol, is a modified assay for the evaluation of mucolytic activity in mice as described by Chand et al., previously cited.
1. The test animals are Hsd:1CR(CD-1) mice that weigh approximately 25 g each.
2. The test compound is diluted in normal saline to a concentration of 25 mg/mL and administered using a human De Vilbiss atomizer Model No. 15 at approximately 100 mg/kg. The control group receives saline. The nozzle is placed in the mouth of the mouse and 2 spray doses are given.
3. After 30 minutes, phenol red dissolved as a 5% solution in saline is given IP at a dose of 0.1 mL/10 g body weight.
4. […]
6. The amount of phenol red secreted into the trachea is quantitated photometrically at 546 nm. […]

premature fetal rabbits = test: Surfactant activity in RDS model using premature fetal rabbits (dynamic lung compliance); type: in vivo, rabbit; conditions: fetal rabbits 27 days gestation, 0.2 mL endotracheal instillation, 30 minute intervals for 90 minutes
Description: A common in vivo model for the evaluation of surfactants is lung compliance in premature fetal rabbits. This method is described in Revak et al., Am. Rev. Respir. Dir. (1986) 134:1258-1265. In this assay, the effectiveness of the subject compounds as lung surfactants is determined by evaluating dynamic lung compliance in premature fetal rabbits which are known to have difficulty initiating breathing due to low levels of natural lung surfactant.
1. The test animals are fetal rabbits delivered prematurely at 27 days of gestation.
2. The test solution is prepared by suspending the Formula I compound ([…]) in 6 mL of 10 mM HEPES buffer with sodium chloride (150 mM) at a pH of 7.4.
3. 0.2 mL of test solution is administered to the fetal rabbit before breathing commenced by endotracheal instillation and then monitored for breathing. The control group receives saline.
4. The fetal rabbit is ventilated and monitored for breathing.
5. After 30 minutes, the rabbit is examined for quality of breathing and color. A healthy pink color is indicative of good breathing. […] The higher the value of measured compliance, the better the breathing of the test animal.
6. Compliance values are determined at 30 minute intervals for 90 minutes.

[2] = tested on: Histamine-Induced Airway Resistance; test: Histamine-induced airway resistance in anesthetized guinea pigs (total pulmonary resistance); type: in vivo, guinea pig; conditions: after induction with histamine, salbutamol 10 μg/kg or same equivalent dosage
Description: The following is a protocol for the evaluation of anti-histamine activity in anesthetized guinea pigs.
1. Guinea pigs of 650-1000 g are used to facilitate catheterization of the jugular vein and carotid artery. The guinea pigs are anesthetized with 35-45 mg/kg pentobarbital sodium. When or if the recordings are unstable, anesthetic additions are made during the course of the intervention. The cutdown is a ventral medial incision over the cervical area so that the trachea, jugular vein and carotid artery can be cannulated. The animals are immediately attached to a volume regulated Harvard® rodent respirator, Model 683, via a tracheostomy and the respirator is set at 60 respirations per minute and a volume of 8 ml/kg to maintain a normal arterial P-CO2 of approximately 40 mmHg. […] These two parameters are measured before and after each drug is given and at each increment in the dose response studies with each drug candidate and recorded. Total pulmonary resistance (TPR) is calculated as the difference between the expiratory pressure and inspiratory pressures with a constant volume.
After the anesthetic and muscle relaxant are given, the animal is allowed to stabilize. […] The dose-related increases or decreases are quantitated against these controls to determine the percent inhibition of histamine activity. […]

SMILES | anti-inflammatory activity with increasing concentration ([1]; 1 to 30 mM, in contrast to α-tocopherol) | inhibition at 1000 µM [1] [%] | inhibition at 3000 µM [1] [%] | inhibition at 10000 µM [1] [%] | inhibition at 30000 µM [1] [%] | average measured percent change in mucolytic activity (Mouse Tracheal Mucus) | compliance values (dynamic lung compliance) (premature fetal rabbits) | TPR course after administration [2]
Cc1c(C)c2c(c(C)c1OP(=O)([O-])OCC[N+](C)(C)C)CCC(C)(CCCC(C)CCCC(C)CCCC(C)C)O2 (stereo not drawn) [CPR 2001, α-tocopheryl-phosphocholine] | anti-inflammatory activity markedly increases | 5 | 13 | 31 | 56 | about 82.6% | significantly greater compliance values | 
Cc1c(C)c2c(c(C)c1O)CCC(C)(CCCC(C)CCCC(C)CCCC(C)C)O2 (stereo not drawn) [α-tocopherol, reference compound] |  | -3 | -6 | -6 | -14 |  |  | 
CC(C)(C)NCC(O)c1ccc(O)c(CO)c1 (stereo not shown) [salbutamol] |  |  |  |  |  |  |  | briefly increased and then decreased below the control value
CC(=O)N[C@@H](CS)C(=O)O [N-acetylcysteine, reference compound] |  |  |  |  |  | about 59.5% |  | 
